Results: ChEMBL document CHEMBL5042526, “Design, Synthesis, and Biological Evaluation of Triazolone Derivatives as Potent PPARα/δ Dual Agonists for the Treatment of Nonalcoholic Steatohepatitis” (J Med Chem, 2022)
Calls of active or inactive are those of the source. The calls are words filed in the database; no cut-off is given here.

Tests used:
HepG2 [1] = assay: Agonist activity against PPARalpha/delta (unknown origin) assessed as upregulation of CPT1A mRNA expression in human HepG2 cells incubated for 12 hrs by RT-PCR analysis; assay type: cell-based; conditions: filed as agonist, dose 8-200 nM
HepG2 [2] = assay: Agonist activity against PPARalpha/delta (unknown origin) assessed as upregulation of ACADVL mRNA expression in human HepG2 cells at 8 nM incubated for 12 hrs by RT-PCR analysis; assay type: cell-based; conditions: filed as agonist
HepG2 [3] = assay: Agonist activity against PPARalpha/delta (unknown origin) assessed as upregulation of PDK4 mRNA expression in human HepG2 cells at 8 nM incubated for 12 hrs by RT-PCR analysis; assay type: cell-based; conditions: filed as agonist
HepG2 [4] = assay: Agonist activity against PPARalpha/delta (unknown origin) assessed as upregulation of CPT1A mRNA expression in human HepG2 cells at 8 nM incubated for 12 hrs by RT-PCR analysis; assay type: cell-based; conditions: filed as agonist
Mus musculus [5] = assay: In vivo agonist activity at PPARalpha/delta assessed as upregulation of Fads2 mRNA expression in C57BL/6Nifdc mouse liver at 10 mg/kg, po for 4 days; assay type: functional, organism-based; conditions: time 4.0 day
Mus musculus [6] = assay: In vivo agonist activity at PPARalpha/delta assessed as upregulation of Cdkn1a mRNA expression in C57BL/6Nifdc mouse liver at 10 mg/kg, po for 4 days; assay type: functional, organism-based; conditions: time 4.0 day
Mus musculus [7] = assay: In vivo agonist activity at PPARalpha/delta assessed as upregulation of Lipa mRNA expression in C57BL/6Nifdc mouse liver at 10 mg/kg, po for 4 days; assay type: functional, organism-based; conditions: time 4.0 day
Mus musculus [8] = assay: In vivo agonist activity at PPARalpha/delta assessed as upregulation of Csnk1g2 mRNA expression in C57BL/6Nifdc mouse liver at 10 mg/kg, po for 4 days; assay type: functional, organism-based; conditions: time 4.0 day
Mus musculus [9] = assay: In vivo agonist activity at PPARalpha/delta assessed as upregulation of Gpd1 mRNA expression in C57BL/6Nifdc mouse liver at 10 mg/kg, po for 4 days; assay type: functional, organism-based; conditions: time 4.0 day
Mus musculus [10] = assay: In vivo agonist activity at PPARalpha/delta assessed as upregulation of -Grhpr mRNA expression in C57BL/6Nifdc mouse liver at 10 mg/kg, po for 4 days; assay type: functional, organism-based; conditions: time 4.0 day
Mus musculus [11] = assay: In vivo agonist activity against PPARalpha/delta assessed as upregulation of Hilpda-mRNA expression in C57BL/6Nifdc mouse liver at 10 mg/kg, po for 4 days; assay type: functional, organism-based; conditions: time 4.0 day
Mus musculus [12] = assay: In vivo agonist activity against PPARalpha/delta assessed as upregulation of Aldh3a2 mRNA expression in C57BL/6Nifdc mouse liver at 10 mg/kg, po for 4 days; assay type: functional, organism-based; conditions: time 4.0 day
Mus musculus [13] = assay: In vivo agonist activity against PPARalpha/delta assessed as upregulation of Cd36 mRNA expression in C57BL/6Nifdc mouse skeletal muscle at 10 mg/kg, po for 4 days; assay type: functional, organism-based; conditions: time 4.0 day
Mus musculus [14] = assay: In vivo agonist activity against PPARalpha/delta assessed as upregulation of Cpt1b mRNA expression in C57BL/6Nifdc mouse skeletal muscle at 10 mg/kg, po for 4 days; assay type: functional, organism-based; conditions: time 4.0 day
Mus musculus [15] = assay: In vivo agonist activity against PPARalpha/delta assessed as upregulation of -Retsat mRNA expression in C57BL/6Nifdc mouse skeletal muscle at 10 mg/kg, po for 4 days; assay type: functional, organism-based; conditions: time 4.0 day
Mus musculus [16] = assay: In vivo agonist activity against PPARalpha/delta assessed as upregulation of Acot1 mRNA expression in C57BL/6Nifdc mouse skeletal muscle at 10 mg/kg, po for 4 days; assay type: functional, organism-based; conditions: time 4.0 day
Mus musculus [17] = assay: In vivo agonist activity against PPARalpha/delta assessed as upregulation of Pdk4 mRNA expression in C57BL/6Nifdc mouse skeletal muscle at 10 mg/kg, po for 4 days; assay type: functional, organism-based; conditions: time 4.0 day
COS7 = assay: Agonist activity at human CAR (48 to 324 residues) in Cos7 cells transfected with LBD-Gal4 and pGL435 Gal4 UAS Luc reporter plasmid at 10 uM by reporter gene assay; assay type: cell-based
Mus musculus [18] = assay: Anti-NASH activity in HF-CDAA-induced nonalcoholic steatohepatitis C57BL/6JNifdc mouse model assessed as reduction in steatosis by measuring hepatic total cholesterol level at 3 to 30 mg/kg, po; assay type: functional, organism-based; conditions: dose 3-30 mg/kg
Mus musculus [19] = assay: Anti-NASH activity in HF-CDAA-induced nonalcoholic steatohepatitis C57BL/6JNifdc mouse model assessed as lipid drop size at 3 to 30 mg/kg, po by H and E staining method; assay type: functional, organism-based; conditions: dose 3-30 mg/kg
Mus musculus [20] = assay: Anti-NASH activity in HF-CDAA-induced nonalcoholic steatohepatitis C57BL/6JNifdc mouse model assessed as reversal of inflammatory infilitration 3 to 30 mg/kg, po by H and E staining method; assay type: functional, organism-based; conditions: dose 3-30 mg/kg
THP-1 = assay: Anti-inflammatory activity in human THP1-derived macrophages assessed as decrease in secretion of LPS-induced IL-6 level at 8 to 200 nM for 12 hrs by ELISA kit method; assay type: functional, cell-based; conditions: dose 8-200 nM
Mus musculus [21] = assay: Anti-fibrosis effect in HF-CDAA-induced nonalcoholic steatohepatitis C57BL/6JNifdc mouse model assessed as expression of Acta2 marker at 10 mg/kg, po after 20 hrs by Western blot analysis; assay type: functional, organism-based
Mus musculus [22] = assay: Anti-fibrosis effect in HF-CDAA-induced nonalcoholic steatohepatitis C57BL/6JNifdc mouse model assessed as expression of Col1a1 marker at 10 mg/kg, po after 20 hrs by Western blot analysis; assay type: functional, organism-based
Mus musculus [23] = assay: Anti-fibrosis effect in CCl4 induced liver fibrosis C57BL/6JNifdc mouse model assessed as downregulation of alpha-SMA expression at 3 to 30 mg/kg, po after 20 hrs by Western blot analysis; assay type: functional, organism-based; conditions: dose 3-30 mg/kg
Mus musculus [24] = assay: Anti-fibrosis effect in CCl4 induced liver fibrosis C57BL/6JNifdc mouse model by measuring serum triglyceride level at 3 to 30 mg/kg, po; assay type: functional, organism-based; conditions: dose 3-30 mg/kg
C2C12 [25] = assay: Agonist activity against PPARalpha/delta ( unknown origin) assessed as upregulation of Pdk4 mRNA expression in […] cells incubated for 12 hrs by RT-PCR analysis; assay type: cell-based; conditions: filed as agonist, dose 8-200 nM
C2C12 [26] = assay: Agonist activity against PPARalpha/delta (unknown origin) assessed as upregulation of Angpt14 mRNA expression in […] cells at 8 nM incubated for 12 hrs by RT-PCR analysis; assay type: cell-based; conditions: filed as agonist
C2C12 [27] = assay: Agonist activity against PPARalpha/delta (unknown origin) assessed as upregulation of Pdk4 mRNA expression in […] cells at 8 nM incubated for 12 hrs by RT-PCR analysis; assay type: cell-based; conditions: filed as agonist
AML12 [28] = assay: Agonist activity against PPARalpha/delta (unknown origin) assessed as upregulation of Pdk4 mRNA expression in […] cells at 8 nM incubated for 12 hrs by RT-PCR analysis; assay type: cell-based; conditions: filed as agonist
AML12 [29] = assay: Agonist activity against PPARalpha/delta (unknown origin) assessed as upregulation of ACADVL mRNA expression in […] cells at 8 nM incubated for 12 hrs by RT-PCR analysis; assay type: cell-based; conditions: filed as agonist

`Cc1cc(Cn2ncn(-c3ccc(OC(F)(F)F)cc3)c2=O)cc(C)c1OC(C)(C)C(=O)O` was tested, and the Activity (HepG2 [1]) was “Dose-Dependent Effect”, the Activity (HepG2 [2]) was “Active” and the Activity (HepG2 [3]) was “Active”. For the same compound, the Activity (HepG2 [4]) was “Active”, the Activity (Mus musculus [5]) was “Active” and the Activity (Mus musculus [6]) was “Active”. For the same compound, the Activity (Mus musculus [7]) was “Active”, the Activity (Mus musculus [8]) was “Active” and the Activity (Mus musculus [9]) was “Active”. For the same compound, the Activity (Mus musculus [10]) was “Active”, the Activity (Mus musculus [11]) was “Active” and the Activity (Mus musculus [12]) was “Active”. The Activity (Mus musculus [13]) was “Active”, the Activity (Mus musculus [14]) was “Active” and the Activity (Mus musculus [15]) was “Active”. The Activity (Mus musculus [16]) was “Active”, the Activity (Mus musculus [17]) was “Active” and the Activity (COS7) was “inactive”. For the same compound, the Activity (Mus musculus [18]) was “Active”, the Activity (Mus musculus [19]) was “Active” and the Activity (Mus musculus [20]) was “Active”. The Activity (THP-1) was “Active”, the Activity (Mus musculus [21]) was “Active” and the Activity (Mus musculus [22]) was “Active”. For the same compound, the Activity (Mus musculus [23]) was “Active”, the Activity (Mus musculus [24]) was “Active” and the Activity (C2C12 [25]) was “Dose-Dependent Effect”. The Activity (C2C12 [26]) was “Active”, the Activity (C2C12 [27]) was “Active” and the Activity (AML12 [28]) was “Active”. For the same compound, the Activity (AML12 [29]) was “Active”.
